From patent US7253286B2, “Nitrogen-containing aromatic derivatives” (Eisai Co., Ltd, priority 2000, dated 2007)
Where a name gives a salt, the structure may show the parent alone.

These compounds were tested on Human Umbilical Vein Endothelial Cells (HUVECs) (assay: Inhibition against sandwich tube formation by vascular endothelial cells in response to stimulation by VEGF). Conditions: HUVEC in collagen gel sandwich, stimulation by VEGF (25 ng/ml VEGF and 10 ng/ml EGF), 4th day, total tube length, read-out: IC50 (concentration required for 50% inhibition of tube formation).
Type: cell-based
Experimental: Inhibition Against Sandwich Tube Formation by Vascular Endothelial Cells in Response to Stimulation by Angiogenic Factor
Human Umbilical Vein Endothelial Cells (HUVECS) were isolated by the same method as in Pharmacological Test Example 1, and were cultured in a 5% CO2 incubator (37° C.) using EGM-2 medium (purchased from Clonetics Corp.) until the cells reached confluency.
An ice-cooled mixture of collagen: 5× RPMI 1640: reconstitution buffer (all purchased from Nitta Gelatin, Inc.) at 7:2:1 was dispensed at 0.4 ml into each well of a 24-well plate, and then stationed for 40 minutes in a 5% CO2 incubator (37° C.) for gelling. The HUVECs were recovered using trypsin-EDTA and then suspended in human endothelial serum free medium (SFM, purchased from GIBCO BRL) containing added angiogenic factors [20 ng/ml FGF2 (purchased from GIBCO BRL) and 10 ng/ml EGF (purchased from GIBCO BRL), or 25 ng/ml VEGF (purchased from Wako Pure Chemical Industries Co., Ltd.) and 10 ng/ml EGF, or 30 ng/ml HGF (purchased from R&D Co.) and 10 ng/ml EGF], and the cell suspension was added at 0.4 ml to each well (with the cell counts differing slightly according to the HUVEC lot), and cultured overnight in a 5% CO2 incubator (37° C.). On the following day, the medium on the upper layer was aspirated off, and then 0.4 ml of an ice-cooled mixture of collagen: 5× RPMI 1640: reconstitution buffer (all purchased from Nitta Gelatin, Inc.) at 7:2:1 was superposed into each well prior to stationing for 4 hours in a 5% CO2 incubator (37° C.) for gelling. After adding 1.5 ml of an SFM solution containing each of the aforementioned angiogenic factors and a diluted test substance onto the upper layer, culturing was performed in a 5% CO2 incubator (37° C.). Upon aspirating off the culture supernatant in each well on the 4th day after addition of the test substance, 0.4 ml of a 3.3 mg/ml MTT solution dissolved in PBS (purchased from Sigma Corp.) was added to each well and culturing was performed for approximately 2 hours in a 5% CO2 incubator (37° C.). The tubes formed in the collagen gel of each well were stained by the MTT, the tube images were loaded into a computer (Macintosh), and the total length of the tubes was determined by image analysis software “MacScope” (purchased from Mitani Corp.). The ratio of the total length of the tubes formed in the well containing the test substance with respect to the total length of the tubes formed in the well containing no test substance was expressed as a percentage, and the concentration of each test substance required for 50% inhibition of tube formation (IC50) was determined from the ratio value.

Compared with `COc1cc2nccc(Oc3ccc(NC(=O)NC4CC4)c(Cl)c3)c2cc1C(=O)Nc1ncc[nH]1` [Example 405, N6-(1H-2-Imidazolyl)-4-(3-chloro-4-(((cyclopropylamino)carbonyl)amino)phenoxy)-7-methoxy-6-quinolinecarboxamide], `CNC(=O)c1cc2c(Oc3ccc(NC(=O)NC4CC4)c(Cl)c3)ccnc2cc1OC` [Example 442, N6-Methyl-4-(3-chloro-4-(((cyclopropylamino)carbonyl)amino)phenoxy)-7-methoxy-6-quinolinecarboxamide] is 3.9-fold lower in IC50: 28 nM for the first, 7.2 nM for the second.

First: COc1cc2nccc(Oc3ccc(NC(=O)NC4CC4)c(Cl)c3)c2cc1C(=O)Nc1cccnc1 [Example 408, N6-(3-Pyridyl)-4-(3-chloro-4-(((cyclopropylamino)carbonyl)amino)phenoxy)-7-methoxy-6-quinolinecarboxamide]
Second: CCCNC(=O)c1cc2c(Oc3ccc(NC(=O)NC4CC4)c(Cl)c3)ccnc2cc1OC [Example 444, N6-Propyl-4-(3-chloro-4-(((cyclopropylamino)carbonyl)amino)phenoxy)-7-methoxy-6-quinolinecarboxamide]
The IC50 of the first is 7.1-fold higher: 39 nM for the first, 5.5 nM for the second. The second is the more potent here.

Compared with `CCN(CC)CCCOc1cc2nccc(Oc3ccc(NC(=O)NC4CC4)c(Cl)c3)c2cc1C#N` [Example 419, N-(2-Chloro-4-((6-cyano-7-(3-(diethylamino)propoxy)-4-quinolyl)oxy)phenyl)-N′-cyclopropylurea], `COc1cc2nccc(Oc3ccc(NC(=O)NC4CC4)c(Cl)c3)c2cc1C(=O)NCCC#N` [Example 440, N6-(2-Cyanoethyl)-4-(3-chloro-4-(((cyclopropylamino)carbonyl)amino)phenoxy)-7-methoxy-6-quinolinecarboxamide] is 7.1-fold lower in IC50: 10 nM for the first, 1.4 nM for the second.

First: COC(=O)c1cc2c(Oc3ccc(N(C)C(=O)Nc4ccc(F)cc4)cc3)ccnc2cc1OC [Example 433, Methyl 4-(4-(((4-fluoroanilino)carbonyl)(methyl)amino)phenoxy)-7-methoxy-6-quinoline carboxylate]
Second: COCCNC(=O)c1cc2c(Oc3ccc(N(C)C(=O)Nc4ccc(F)cc4)cc3)ccnc2cc1OC [Example 436, N6-(2-Methoxyethyl)-4-(4-(((4-fluoroanilino)carbonyl)(methyl)amino)phenoxy)-7-methoxy-6-quinolinecarboxamide]
The IC50 of the first is 3.9-fold lower: 5.6 nM for the first, 22 nM for the second.

First: C#CCNC(=O)c1cc2c(Oc3ccc(NC(=O)NC4CC4)c(Cl)c3)ccnc2cc1OC [Example 445, N6-Propargyl-4-(3-chloro-4-(((cyclopropylamino)carbonyl)amino)phenoxy)-7-methoxy-6-quinolinecarboxamide]
Second: COc1cc2nccc(Oc3ccc(NC(=O)NC4CC4)c(Cl)c3)c2cc1C(=O)NCC1CC1 [Example 446, N6-Cyclopropylmethyl-4-(3-chloro-4-(((cyclopropylamino)carbonyl)amino)phenoxy)-7-methoxy-6-quinolinecarboxamide]
The IC50 of the first is 1.6-fold higher: 6.2 nM for the first, 4 nM for the second.

Compared with `COc1cc2nccc(Oc3ccc(NC(=O)NC4CC4)c(Cl)c3)c2cc1C(=O)NC[C@H]1CCCO1` [Example 450, N6-((2R)Tetrahydro-2-furanylmethyl)-4-(3-chloro-4-(((cyclopropylamino)carbonyl)amino)phenoxy)-7-methoxy-6-quinolinecarboxamide], `COc1cc2nccc(Oc3ccc(NC(=O)NC4CC4)c(C)c3C)c2cc1C(N)=O` [Example 490, N-[4-(6-Carbamoyl-7-methoxy-4-quinolyl)oxy-2,3-dimethylphenyl]-N′-cyclopropylurea] is 5.8-fold higher in IC50: 4.5 nM for the first, 26 nM for the second.

Compared with `N#Cc1cc2c(Oc3ccc(NC(=O)Nc4ccc(F)cc4)cc3)ccnc2cc1OC[C@H](O)CN1CCCC1` [Example 454, N-(4-((6-Cyano-7-(((2R)-2-hydroxy-3-(1-pyrrolidino)propyl)oxy)-4-quinolyl)oxy)phenyl)-N′-(4-fluorophenyl)urea], `N#Cc1cc2c(Oc3ccc(NC(=O)Nc4ccc(F)cc4)c(F)c3)ccnc2cc1OCC(O)CN1CCCC1` (stereo not shown) [Example 492, N-{4-[6-Cyano-7-(2-hydroxy-3-(pyrrolidin-1-yl)propoxy)quinolin-4-yloxy]-2-fluorophenyl}-N′-(4-fluorophenyl)urea] is 1.9-fold higher in IC50: 3.7 nM for the first, 7.2 nM for the second.

`CCN(CC)C[C@@H](O)COc1cc2nccc(Oc3ccc(NC(=O)Nc4ccc(F)cc4)cc3)c2cc1C#N` [Example 455, N-(4-((6-Cyano-7-(((2R)-3-(diethylamino)-2-hydroxypropyl)oxy)-4-quinolyl)oxy)phenyl)-N′-(4-fluorophenyl)urea] and `CCN(CC)CC(O)COc1cc2nccc(Oc3ccc(NC(=O)Nc4ccc(F)cc4)c(F)c3)c2cc1C#N` (stereo not shown) [Example 493, N-{4-[6-Cyano-7-(3-diethylamino-2-hydroxypropoxy)quinolin-4-yloxy]-2-fluorophenyl}-N′-(4-fluorophenyl)urea] are within 1.5-fold of each other in IC50: 7.8 nM for the first, 9 nM for the second.

Compared with `N#Cc1cc2c(Oc3ccc(NC(=O)Nc4ccc(F)cc4)c(F)c3)ccnc2cc1OCC(O)CN1CCOCC1` (stereo not shown) [Example 494, N-{4-[6-Cyano-7-(2-hydroxy-(3-morpholin-4-yl)propoxy)quinolin-4-yloxy]-2-fluorophenyl}-N′-(4-fluorophenyl)urea], `N#Cc1cc2c(Oc3ccc(NC(=O)Nc4ccc(F)cc4)c(F)c3)ccnc2cc1OC[C@H](O)CN1CCCCC1` [Example 497, N-(4-{6-Cyano-7-[(2R)-2-hydroxy-3-(piperidin-1-yl)propoxy]quinolin-4-yloxy}-2-fluorophenyl)-N′-(4-fluorophenyl)urea] is 2-fold lower in IC50: 9.3 nM for the first, 4.6 nM for the second. The second is the more potent here.

`N#Cc1cc2c(Oc3ccc(NC(=O)Nc4nccs4)c(F)c3)ccnc2cc1OCC1CCNCC1` [Example 503, N-{4-[6-Cyano-7-(piperidin-4-ylmethoxy)quinolin-4-yloxy]-2-fluorophenyl}-N′-(2-thiazolyl)urea] and `CN1CCC(COc2cc3nccc(Oc4ccc(NC(=O)Nc5nccs5)c(F)c4)c3cc2C#N)CC1` [Example 504, N-{4-[6-Cyano-7-(1-methylpiperidin-4-ylmethoxy)quinolin-4-yloxy]-2-fluorophenyl}-N′-(2-thiazolyl)urea] are within 1.5-fold of each other in IC50: 6.4 nM for the first, 4.6 nM for the second.

Compared with `CN1CCCC(COc2cc3nccc(Oc4ccc(NC(=O)Nc5nccs5)c(F)c4)c3cc2C#N)C1` (stereo not shown) [Example 505, N-{4-[6-Cyano-7-(1-methylpiperidin-3-ylmethoxy)quinolin-4-yloxy]-2-fluorophenyl}-N′-(2-thiazolyl)urea], `CONC(=O)c1cc2c(Oc3ccc4c(ccn4C(=O)NC4CC4)c3)ccnc2cc1OC` [Example 521, 6-Methoxycarbamoyl-7-methoxy-4-((1-cyclopropylcarbamoyl)indol-5-yloxy)quinoline] is 18-fold lower in IC50: 8.9 nM for the first, 0.5 nM for the second. The second is the more potent here.

`CCNC(=O)n1ccc2cc(Oc3ccnc4cc(OC)c(C(=O)NCCF)cc34)ccc21` [Example 518] and `CCNC(=O)n1ccc2cc(Oc3ccnc4cc(OC)c(C(=O)NOC)cc34)ccc21` [Example 520, 6-Methoxycarbamoyl-7-methoxy-4-((1-ethylcarbamoyl)indol-5-yloxy)quinoline] are within 1.5-fold of each other in IC50: 1.3 nM for the first, 1.5 nM for the second.

Work on `COc1cc(Nc2cc(Oc3ccc(NC(=O)Nc4ccccc4)cc3)ncn2)cc(OC)c1OC` [Example 578, N-Phenyl-N′-(4-(6-(3,4,5-trimethoxyphenylamino)pyrimidin-4-yloxy)phenyl)urea hydrochloride] yielded an IC50 of 13 nM.
